Source: PubChem BioAssay (NCI)
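Growth conditions: 96-well plates. Treatment: test compound, 48 hours, 5 concentrations. Analysis: linear interpolation between bracketing concentrations; unreached endpoints set to highest concentration. GI50 marks 50% less growth. The concentration for full growth arrest is given as TGI.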

Columns and labels:
Test in all cases: inhibition of tumour cell growth, NCI panel, 48 h
[1] = system: A498 renal
[2] = system: A549 NSCLC
[3] = system: ACHN renal
[4] = system: CCRF-CEM leukemia
[5] = system: COLO 205 colon
[6] = system: DU-145 prostate
[7] = system: EKVX NSCLC
[8] = system: HCC-2998 colon
[9] = system: HCT-116 colon
[10] = system: HCT-15 colon
[11] = system: HL-60(TB) leukemia
[12] = system: HOP-62 NSCLC
[13] = system: HOP-92 NSCLC
[14] = system: HS 578T breast
[15] = system: HT29 colon
[16] = system: IGROV1 ovarian
[17] = system: K-562 leukemia
[18] = system: KM12 colon
[19] = system: LOX IMVI melanoma
[20] = system: M14 melanoma
[21] = system: MALME-3M melanoma
[22] = system: MCF7 breast
[23] = system: MDA-MB-231 breast
[24] = system: MDA-MB-435
[25] = system: MOLT-4 leukemia
[26] = system: NCI-H226 lung
[27] = system: NCI-H23 lung
[28] = system: NCI-H460 lung
[29] = system: NCI/ADR-RES ovarian
[30] = system: OVCAR-4 ovarian
[31] = system: OVCAR-5 ovarian
[32] = system: OVCAR-8 ovarian
[33] = system: RPMI-8226 leukemia
[34] = system: RXF 393 renal
[35] = system: SF-268 CNS
[36] = system: SF-295 CNS
[37] = system: SF-539 CNS
[38] = system: SK-MEL-28 melanoma
[39] = system: SK-MEL-5 melanoma
[40] = system: SK-OV-3 ovarian
[41] = system: SN12C renal
[42] = system: SNB-19 CNS
[43] = system: SNB-75 CNS
[44] = system: SR leukemia
[45] = system: SW-620 colon
[46] = system: T-47D breast
[47] = system: TK-10 renal
[48] = system: U251 CNS
[49] = system: UACC-257 melanoma
[50] = system: UACC-62 melanoma
[51] = system: UO-31 renal
[52] = system: 786-0 renal
[53] = system: CAKI-1 renal
[54] = system: NCI-H522 lung
[55] = system: OVCAR-3 ovarian
[56] = system: PC-3 prostate
[57] = system: SK-MEL-2 melanoma

COc1ccc2c3c([nH]c2c1)CCN(Cc1ccccc1)C3
TGI [1]: 46.5 µM
TGI [2]: > 100 µM
TGI [3]: > 100 µM
TGI [4]: > 100 µM
TGI [5]: 38.5 µM
TGI [6]: > 100 µM
TGI [7]: > 100 µM
TGI [8]: 34.1 µM
TGI [9]: > 100 µM
TGI [10]: 39 µM
TGI [11]: 35.8 µM
TGI [12]: 80.2 µM
TGI [13]: 25.6 µM
TGI [14]: 56.9 µM
TGI [15]: > 100 µM
TGI [16]: > 100 µM
TGI [17]: 51.3 µM
TGI [18]: 70.5 µM
TGI [19]: 38 µM
TGI [20]: 34.8 µM
TGI [21]: 34.6 µM
TGI [22]: 33.8 µM
TGI [23]: 66.4 µM
TGI [24]: 60.6 µM
TGI [25]: 73.7 µM
TGI [26]: 73.2 µM
TGI [27]: > 100 µM
TGI [28]: 37.7 µM
TGI [29]: 98.3 µM
TGI [30]: > 100 µM
TGI [31]: 69 µM
TGI [32]: > 100 µM
TGI [33]: 64.6 µM
TGI [34]: 50.7 µM
TGI [35]: > 100 µM
TGI [36]: 28.2 µM
TGI [37]: 32.7 µM
TGI [38]: 38 µM
TGI [39]: 32.6 µM
TGI [40]: > 100 µM
TGI [41]: 78.2 µM
TGI [42]: 44.3 µM
TGI [43]: > 100 µM
TGI [44]: 40.3 µM
TGI [45]: 51.7 µM
TGI [46]: 69.1 µM
TGI [47]: 65.1 µM
TGI [48]: 53.4 µM
TGI [49]: 42.5 µM
TGI [50]: > 100 µM
TGI [51]: 39.6 µM

COc1ccccc1NS(=O)(=O)c1ccc2oc(SC(C)C)nc2c1
GI50 [52]: 26.6 µM
TGI [52]: > 100 µM
GI50 [1]: 23.3 µM
TGI [1]: 61.7 µM
GI50 [2]: 16.3 µM
TGI [2]: 88.6 µM
GI50 [3]: 21 µM
TGI [3]: > 100 µM
GI50 [53]: 17 µM
TGI [53]: 68.9 µM
GI50 [4]: 11.9 µM
TGI [4]: 56.1 µM
GI50 [5]: 18.6 µM
TGI [5]: 40.1 µM
GI50 [6]: 31.8 µM
TGI [6]: > 100 µM
GI50 [7]: 6.4 µM
TGI [7]: 78.7 µM
GI50 [8]: 27 µM
TGI [8]: 51.4 µM
GI50 [9]: 8.35 µM
TGI [9]: > 100 µM
GI50 [10]: 29.4 µM
TGI [10]: > 100 µM
GI50 [11]: 6.09 µM
TGI [11]: 29.1 µM
GI50 [12]: 31.2 µM
TGI [12]: > 100 µM
TGI [13]: 13 µM
GI50 [14]: 33.6 µM
TGI [14]: > 100 µM
GI50 [15]: 22.2 µM
TGI [15]: 64.1 µM
GI50 [17]: 3.73 µM
TGI [17]: > 100 µM
GI50 [18]: 18.5 µM
TGI [18]: 49 µM
GI50 [19]: 12.7 µM
TGI [19]: 46.4 µM
GI50 [20]: 36.1 µM
TGI [20]: > 100 µM
GI50 [21]: 12.9 µM
TGI [21]: 37.5 µM
GI50 [22]: 15.5 µM
TGI [22]: > 100 µM
GI50 [23]: 12.4 µM
TGI [23]: 52 µM
GI50 [24]: 18.7 µM
TGI [24]: 94 µM
GI50 [25]: 5.23 µM
TGI [25]: 39.7 µM
GI50 [26]: 10.3 µM
TGI [26]: 43.9 µM
GI50 [27]: 8.66 µM
TGI [27]: > 100 µM
GI50 [28]: 15.7 µM
TGI [28]: > 100 µM
GI50 [54]: 10.2 µM
TGI [54]: 75.7 µM
GI50 [29]: 14.8 µM
TGI [29]: 84.1 µM
GI50 [55]: 19.3 µM
TGI [55]: 40.4 µM
GI50 [30]: 8.67 µM
TGI [30]: 77.6 µM
GI50 [31]: 48.9 µM
TGI [31]: > 100 µM
GI50 [32]: 25.6 µM
TGI [32]: > 100 µM
GI50 [56]: 12.4 µM
TGI [56]: 45.7 µM
GI50 [33]: 2.4 µM
TGI [33]: 24.4 µM
GI50 [35]: 29.5 µM
TGI [35]: > 100 µM
GI50 [36]: 11.1 µM
TGI [36]: 37 µM
GI50 [37]: 18.6 µM
TGI [37]: 56.1 µM
GI50 [57]: 15.6 µM
TGI [57]: 61.5 µM
GI50 [38]: 37.5 µM
TGI [38]: > 100 µM
GI50 [39]: 3.99 µM
TGI [39]: 17.4 µM
GI50 [40]: 33.5 µM
TGI [40]: > 100 µM
GI50 [41]: 15.5 µM
TGI [41]: 34.5 µM
GI50 [42]: 37.7 µM
TGI [42]: > 100 µM
GI50 [43]: 27.4 µM
TGI [43]: 84.3 µM
GI50 [44]: 3.62 µM
TGI [44]: 24.4 µM
GI50 [45]: 31.6 µM
TGI [45]: > 100 µM
GI50 [46]: 8.98 µM
TGI [46]: > 100 µM
GI50 [47]: 18.5 µM
TGI [47]: 53.8 µM
GI50 [48]: 33.1 µM
TGI [48]: > 100 µM
GI50 [49]: 1.76 µM
TGI [49]: 19.1 µM
GI50 [50]: 18.5 µM
TGI [50]: > 100 µM
GI50 [51]: 18.4 µM
TGI [51]: 70.3 µM

CCCCCCCC(=O)OCC(=O)[C@]1(O)Cc2c(O)c3c(c(O)c2[C@@H](OC2CC(N)C(O)C(C)O2)C1)C(=O)c1c(OC)cccc1C3=O (stereo partly drawn)
GI50 [52]: 0.0622 µM
TGI [52]: 1.25 µM
GI50 [1]: 0.215 µM
TGI [1]: 0.951 µM
GI50 [53]: 0.558 µM
TGI [53]: 2.43 µM
GI50 [5]: 0.0812 µM
TGI [5]: 0.778 µM
GI50 [6]: 0.0266 µM
TGI [6]: 0.284 µM
GI50 [7]: 0.236 µM
TGI [7]: 1.58 µM
GI50 [8]: 0.137 µM
TGI [8]: 0.767 µM
GI50 [9]: 0.0742 µM
TGI [9]: 1.09 µM
GI50 [10]: 0.703 µM
TGI [10]: 2.14 µM
GI50 [11]: 0.0263 µM
TGI [11]: 0.221 µM
GI50 [12]: 0.162 µM
TGI [12]: 1.74 µM
GI50 [18]: 0.188 µM
TGI [18]: 0.758 µM
GI50 [20]: 0.0866 µM
TGI [20]: 0.634 µM
TGI [22]: 0.417 µM
GI50 [23]: 0.578 µM
TGI [23]: 2.17 µM
GI50 [24]: 0.325 µM
TGI [24]: 1.88 µM
GI50 [27]: 0.0552 µM
TGI [27]: 0.526 µM
TGI [28]: 0.196 µM
GI50 [29]: 1.67 µM
TGI [29]: 4.41 µM
GI50 [31]: 0.422 µM
TGI [31]: 1.24 µM
GI50 [36]: 0.0471 µM
TGI [36]: 1.23 µM
GI50 [37]: 0.166 µM
TGI [37]: 1 µM
GI50 [38]: 0.199 µM
TGI [38]: 0.902 µM
GI50 [39]: 0.0427 µM
TGI [39]: 0.185 µM
GI50 [40]: 0.135 µM
TGI [40]: 0.879 µM
GI50 [42]: 0.0601 µM
TGI [42]: 1.25 µM
GI50 [45]: 0.0403 µM
TGI [45]: 1.15 µM
GI50 [46]: 0.0512 µM
TGI [46]: 1.2 µM
GI50 [47]: 0.265 µM
TGI [47]: 2 µM
GI50 [50]: 0.033 µM
TGI [50]: 0.494 µM
